Experimental data taken from the RepoRT retention time repository.

Experiment: Waters XBridge C18, 0.2 mL/min; A: water + 0.1% formic acid; B: methanol + 0.1% formic acid; gradient (min/%B) 0/10 4/50 17/95 25/95
Settings: stereoisomer not certain

Row | LC retention time | Compound
1 | 9.3 min | NC(=O)N1c2ccccc2C=Cc2ccccc21
2 | 10 min | CCN(CC)C(=O)c1cccc(C)c1
3 | 11 min | CCCCC1=NC2(CCCC2)C(=O)N1Cc1ccc(-c2ccccc2-c2nn[nH]n2)cc1
4 | 5.9 min | Cc1cc(=O)n(-c2ccccc2)n1C
5 | 3.6 min | CN=C(NC#N)NCCSCc1nc[nH]c1C
6 | 5.2 min | CCN(CC)CC(=O)Nc1c(C)cccc1C
7 | 4.7 min | CC(C)NCC(O)COc1ccc(CC(=O)O)cc1 (stereo not drawn)
8 | 4.2 min | Nc1ccc(S(=O)(=O)Nc2nccs2)cc1
9 | 5.8 min | c1ccc2n[nH]nc2c1
10 | 5.7 min | Cc1cc(NS(=O)(=O)c2ccc(N)cc2)no1
11 | 1.2 min | CNC(=C[N+](=O)[O-])NCCS(=O)Cc1ccc(CN(C)C)o1 (stereo not drawn)
12 | 4.7 min | COc1cc(Cc2cnc(N)nc2N)cc(OC)c1OC
13 | 8 min | NC(=O)N1c2ccccc2CC(=O)c2ccccc21
14 | 5.2 min | Cc1cc(C)nc(NS(=O)(=O)c2ccc(N)cc2)n1
15 | 10 min | CCC1OC(=O)C(C)C(OC2CC(C)(OC)C(O)C(C)O2)C(C)C(OC2OC(C)CC(N(C)C)C2O)C(C)(O)CC(C)C(=NOCOCCOC)C(C)C(O)C1(C)O (stereo not drawn)
16 | 1.2 min | CN(C)C(=N)N=C(N)N

Row | LC retention time | Compound
17 | 5.6 min | CNC(=C[N+](=O)[O-])NCCSCc1ccc(CN(C)C)o1
18 | 16 min | Cc1cccc(Nc2ccccc2C(=O)O)c1C
19 | 7.9 min | O=C(O)c1ccc(-c2ccccc2-c2nn[nH]n2)cc1
20 | 8.6 min | CC(C)(C(=O)O)c1ccc(C(O)CCCN2CCC(C(O)(c3ccccc3)c3ccccc3)CC2)cc1 (stereo not drawn)
21 | 7.2 min | CC(C)NCC(O)COc1cccc2ccccc12 (stereo not drawn)
22 | 3.5 min | CC(C)NCC(O)COc1ccc(CC(N)=O)cc1 (stereo not drawn)
23 | 12 min | CCCCC(=O)N(Cc1ccc(-c2ccccc2-c2nn[nH]n2)cc1)C(C(=O)O)C(C)C (stereo not drawn)
24 | 4.7 min | CCCC1CC(C(=O)NC(C(C)O)C2OC(SC)C(O)C(O)C2O)N(C)C1 (stereo not drawn)
25 | 9.9 min | CCC(C)OC(=O)N1CCCCC1CCO (stereo not drawn)
26 | 4.6 min | CCN1CCCC1CNC(=O)c1cc(S(=O)(=O)CC)c(N)cc1OC (stereo not drawn)
27 | 7.4 min | CN(C)CCOC(c1ccccc1)c1ccccc1
28 | 11 min | O=P(c1ccccc1)(c1ccccc1)c1ccccc1
29 | 4.4 min | Nc1ccc(S(=O)(=O)Nc2ccccn2)cc1
30 | 12 min | COc1ccc2cc(C(C)C(=O)O)ccc2c1 (stereo not drawn)
31 | 6.7 min | CC(C)NCC(O)COc1ccc(COCCOC(C)C)cc1 (stereo not drawn)
32 | 7.2 min | Cc1cccc2n[nH]nc12

Row | Compound | LC retention time
33 | CC(C)OP(=O)(OC(C)C)SCc1ccccc1 | 14 min
34 | COc1ccc(CN2CCNCC2)c(OC)c1OC | 3.5 min
35 | CN(C(=O)COc1nc2ccccc2s1)c1ccccc1 | 13 min
36 | COc1ccc(C(CN(C)C)C2(O)CCCCC2)cc1 (stereo not drawn) | 6.9 min
37 | COc1cccc(C2(O)CCCCC2CN(C)C)c1 (stereo not drawn) | 5.7 min
38 | COC(=O)Nc1nc2ccccc2[nH]1 | 4.7 min
39 | Cc1cccc2sc3nncn3c12 | 7.3 min
40 | CC(C)OC(=O)C(C(=O)OC(C)C)=C1SCCS1 | 13 min
41 | CC(C)N1C(=O)c2ccccc2NS1(=O)=O | 8.9 min
42 | COC=C(C(=O)OC)c1ccccc1Oc1cc(Oc2ccccc2C#N)ncn1 | 11 min
43 | COCC(=O)N(c1c(C)cccc1C)C(C)C(=O)OC (stereo not drawn) | 10 min
